Test results from patent US4376076A, “Bis-esters of 1,1-alkanediols with 6-beta-hydroxymethylpenicillanic acid 1,1-dioxide” (priority 1982, dated 1983).

Tests used:
[1] = system: Enterobacter cloacae 67B009 cell free beta-lactamase; assay: Inhibition of cell-free beta-lactamase (microiodometric), E. cloacae 67B009; assay type: biochemical; settings: for beta-lactamase inhibiting activity, in words: Enterobacter cloacae; for % Inhibition Beta-Lactam Hydrolysis: Penicillin G 33 μM
Description: (§1) The compounds of the present invention are thus evaluated in vitro by the ability of the compound (13) to inhibit the hydrolysis of certain beta-lactam antibiotics by beta-lactamase enzymes. The hydrolysis of ampicillin and penicillin G was determined by the microiodometric method of Novick [Biochem, J. 83, 236 (1962)]. Conditions for this assay are 0.5 M potassium phosphate, pH 6.5 and 37° C. Reactions were initiated by the addition of the cell-free beta-lactamase, except in the case of preincubation experiments in which the inhibitor and enzyme were incubated together in the assay mixture for 10 minutes before initiation of the reaction by addition of substrate. With the cell-free extracts of Staphylococcus aureus, Escherichia coli, Klebsiella pneumoniae and Pseudomonas aeruginosa, the substrate was ampicillin at 33 micro M (13 microg./ml).
(§2) Cell-free extracts were prepared by sonic treatment (using three 30-s bursts at 4° C. except for S. aureus, which was broken with a French press) of cultures grown in brain heart infusion on a rotary shaker incubator. For the S. aureus, P. aeruginose, and E. cloacae strains, de novo synthesis of beta-lactamase was induced by growing a log-phase culture in the presence of a sublethal concentration of penicillin G at 100, 1,000, and 300 microg./ml, respectively, for 2.5 hr.

[2] = system: Klebsiella pneumoniae 53A079; assay: MIC on BHI agar, alone and 1:1 with ampicillin; assay type: cell-based; settings: for MIC: inhibitor alone, 18 hrs. at 37° C.
Description: (§3) The procedure which is followed is the one recommended by the International Collaborative Study on Antibiotic Sensitivity Testing [Ericcson and Sherris, Acta. Pathologica et Microbiologia Scandinav, Supp. 217, Sections A and B: 64-68 (1971)], and employs brain heart infusion (BHI) agar and the inocula replicating device. Overnight growth tubes are diluted 100 fold for use as the standard inoculum (20,000-10,000 cells in approximately 0.002 ml are placed on the agar surface; 20 ml of BHI agar/dish). Twelve 2 fold dilutions of the test compound are employed, with initial concentration of the test drug being 200 mcg/ml. Single colonies are disregarded when reading tubes after 18 hrs. at 37° C. […] These MIC's are then compared with the MIC values obtained with a combination of the given antibiotic and the compound of the formula (6). […] The MIC values of combinations are measured using the method described by Barry and Sabath in "Manual of Clinical Microbiology", edited by Lenette, Spaulding and Truant, 2nd Edition, 1974, American Society for Microbiology.
(§4) For purposes of comparison data on the earlier beta-lactamase inhibitor, penicillanic acid 1,1-dioxide, are included.

[3] = system: Staphylococcus aureus 01A005; assay: MIC on BHI agar, alone and 1:1 with ampicillin; assay type: cell-based; settings: inhibitor alone; 18 hrs. at 37° C.
Description: as §3, §4

[4] = system: Enterobacter cloacae 67B009; assay: MIC on BHI agar, alone and 1:1 with ampicillin; assay type: cell-based; settings: for MIC: inhibitor alone, 18 hrs. at 37° C.
Description: as §3, §4

Proteus morgani 57G001 = assay: MIC on BHI agar, alone and 1:1 with ampicillin; assay type: cell-based; settings: inhibitor alone; 18 hrs. at 37° C.
Description: as §3, §4

[5] = system: Serratia marcescens 63A095; assay: MIC on BHI agar, alone and 1:1 with ampicillin; assay type: cell-based; settings: inhibitor alone; 18 hrs. at 37° C.
Description: as §3, §4

[6] = system: Pseudomonas aeruginosa 52A104; assay: MIC on BHI agar, alone and 1:1 with ampicillin; assay type: cell-based; settings: for MIC: inhibitor alone, 18 hrs. at 37° C.
Description: as §3, §4

[7] = system: Staphylococcus aureus 01A400; assay: MIC on BHI agar, alone and 1:1 with ampicillin; assay type: cell-based; settings: inhibitor alone; 18 hrs. at 37° C.
Description: as §3, §4

Escherichia coli 51A266 = assay: MIC on BHI agar, alone and 1:1 with ampicillin; assay type: cell-based; settings: for Response: 1:1 with ampicillin (E); for MIC: inhibitor alone, 18 hrs. at 37° C.
Description: as §3, §4

[8] = system: Citrobacter diversus 70C031; assay: MIC on BHI agar, alone and 1:1 with ampicillin; assay type: cell-based; settings: inhibitor alone; 18 hrs. at 37° C.
Description: as §3, §4

[9] = system: Escherichia coli-R 51A129; assay: MIC on BHI agar, alone and 1:1 with ampicillin; assay type: cell-based; settings: for MIC: inhibitor alone, 18 hrs. at 37° C.
Description: as §3, §4

[10] = system: Pseudomonas aeruginosa 52A104 cell free beta-lactamase; assay: Inhibition of cell-free beta-lactamase (microiodometric), P. aeruginosa 52A104; assay type: biochemical; settings: for beta-lactamase inhibiting activity, in words: Pseudomonas aeruginosa; for % Inhibition Beta-Lactam Hydrolysis: Penicillin G 33 μM, pH 6.5, 37° C.
Description: as §1, with “With the cell-free extracts of Staphylococcus aureus, Escherichia coli, Klebsiella pneumoniae and Pseudomonas aeruginosa, the substrate was ampicillin at 33 micro M (13 microg./ml).” left out
as §2

[11] = system: a variety of microorganisms; assay: Enhancement of ampicillin effectiveness (MIC of combinations), overall statement; assay type: cell-based; settings: 1:1 with ampicillin; summary of Table II
Description: The procedure which is followed is the one recommended by the International Collaborative Study on Antibiotic Sensitivity Testing [Ericcson and Sherris, Acta. Pathologica et Microbiologia Scandinav, Supp. 217, Sections A and B: 64-68 (1971)], and employs brain heart infusion (BHI) agar and the inocula replicating device. Overnight growth tubes are diluted 100 fold for use as the standard inoculum (20,000-10,000 cells in approximately 0.002 ml are placed on the agar surface; 20 ml of BHI agar/dish). Twelve 2 fold dilutions of the test compound are employed, with initial concentration of the test drug being 200 mcg/ml. Single colonies are disregarded when reading tubes after 18 hrs. at 37° C. The susceptibility (MIC) of the test organism is accepted as the lowest concentration of compound capable of producing complete inhibition of growth as judged by the naked eye. The manner in which the said compounds of the formula (B) increase the effectiveness of a beta-lactam antibiotic can be appreciated by reference to experiments in which the MIC of a given antibiotic alone, and a compound of the formula (6) alone, are measured. […] The MIC values of combinations are measured using the method described by Barry and Sabath in "Manual of Clinical Microbiology", edited by Lenette, Spaulding and Truant, 2nd Edition, 1974, American Society for Microbiology. […]

[12] = inhibitor 1.0 μM, pH 6.5, 37° C.
[13] = inhibitor 16.5 μM, pH 6.5, 37° C.
[14] = inhibitor 66 μM, pH 6.5, 37° C.

Compound | beta-lactamase inhibiting activity, in words [1] | % Inhibition Beta-Lactam Hydrolysis [1, 12] | % Inhibition Beta-Lactam Hydrolysis [1, 13] | % Inhibition Beta-Lactam Hydrolysis [1, 14] | MIC [2] | MIC [3] | MIC [4] | MIC (Proteus morgani 57G001) | MIC [5] | MIC [6] | MIC [7] | Response (Escherichia coli 51A266) | MIC (Escherichia coli 51A266) | MIC [8] | MIC [9] | beta-lactamase inhibiting activity, in words [10] | % Inhibition Beta-Lactam Hydrolysis ([10]; inhibitor 66 μM) | other results
CC1(C)[C@H](C(=O)O)N2C(=O)C[C@H]2S1(=O)=O [B, Penicillanic acid 1,1-dioxide] | at best a low order of activity | 0% | 0% | 0% | 50 µg/mL | 100 µg/mL | 100 µg/mL | 200 µg/mL | 200 µg/mL | > 200 µg/mL | 200 µg/mL | N | 25 µg/mL | 200 µg/mL | 200 µg/mL | at best a low order of activity | 0% | % Inhibition Beta-Lactam Hydrolysis ([1]; inhibitor 66 μM, preincubation of inhibitor and enzyme 10 minutes): 26%; Response ([2]; 1:1 with ampicillin (E)): S; Response ([4]; 1:1 with ampicillin (E)): S
CC1(C)[C@H](C(=O)O)N2C(=O)[C@@H](CO)[C@H]2S1(=O)=O [C, 6-beta-(Hydroxymethyl)penicillanic acid 1,1-Dioxides] |  |  |  |  | 50 µg/mL | > 200 µg/mL | 100 µg/mL | > 200 µg/mL | 200 µg/mL | > 200 µg/mL | > 200 µg/mL | N | 50 µg/mL | 200 µg/mL | 50 µg/mL |  |  | Response ([6]; 1:1 with ampicillin (E)): S; Response ([9]; 1:1 with ampicillin (E)): S
CC1(C)[C@H](C(=O)O)N2C(=O)[C@@H](CO)[C@H]2S1(=O)=O [A, 6-beta-(Hydroxymethyl)penicillanic acid 1,1-dioxide] | Especially noteworthy | 11.4% | 52.0% | 77.0% |  |  |  |  |  |  |  |  |  |  |  | Especially noteworthy | 98.8% | % Inhibition Beta-Lactam Hydrolysis ([10]; inhibitor 1.0 μM): 21.7%; % Inhibition Beta-Lactam Hydrolysis ([10]; inhibitor 16.5 μM): 93.4%
CC1(C)[C@H](C(=O)O)N2C(=O)[C@@H](CO)[C@H]2S1(=O)=O [compound (6), 6-beta-(hydroxymethyl)penicillanic acid 1,1-dioxide] |  |  |  |  |  |  |  |  |  |  |  |  |  |  |  |  |  | enhanced spectrum and potency with ampicillin, in words [11]: synergy or pronounced synergy
